Test results published in patent US20130143800A1, “COMBINATION THERAPIES TO TREAT DIABETES” (RESEARCH DEVELOPMENT FOUNDATION, priority 2011, published 2013).
Like-named read-outs stand apart in the source and are kept apart here.

Assays:
[1] = system: hypoxia-inducible factor (HIF); assay: HRE-luc reporter transient assay in INS-1 cells; type: cell-based, rat
Protocol: (§1) INS-1 insulinoma cells were cultured in RPMI 1640 (Mediatech) with 10% heat inactivated fetal bovine serum (Sigma), 2 mM glutamine (Mediatech), 1 mM sodium pyruvate (Mediatech), 100 μg/ml penicillin-streptomycin (Mediatech) and 0.05 mM β-mercaptoethanol. HEK 293T cells were cultured in DMEM (Mediatech) with 10% fetal bovine serum and 100 μg/ml penicillin-streptomycin. Forskolin (10 μM), LY294002 (50 μM), and DMOG (1 mM) were added to cells as indicated. Cells were exposed to rapamycin (50 nM) or to cycloheximide (100 μg/ml) overnight. For glucose and Exendin-4 treatments, INS-1 cells were glucose and serum starved for 1 hour, and stimulated with glucose or 2-deoxyglucose (20 mM) with or without Exendin-4 (10 nM). HEK 293T cells were transfected with polyethylenimine (PEI) and INS-1 cells with Lipofectamine2000 (Invitrogen; 11668-019). For HIF-1α translational reporter experiment, INS-1 cells were transfected with pLUXHIF1α5′UTR or pLUX control vector (generous gift of John Blenis). After 24 hours, cells were exposed to rapamycin overnight where indicated. After forskolin treatment, cells were harvested for Renilla/firefly luciferase activity. Normalized luciferase activities are shown.
Plasmids expressing cDNAs for HA-HIF-1α P402A/P564A (18955) were purchased from Addgene. HRE-LUC reporter construct was generously provided by Randall Johnson (UCSD).

[2] = system: HIF1α; assay: Immunoblot of HIF1α in INS-1 cells; type: cell-based, rat
Protocol: (§2) Immunoblot and immunoprecipitation: Immunoblots were performed as described (Dentin et al., 2008). For immunoprecipitations, cell lysates were incubated with primary antibody and 25 μl of a 50% slurry of protein G agarose beads for 4 hours with rotation at 4° C. Immunoprecipitates were washed with lysis buffer and denatured by boiling in 20 μl SDS sample buffer.
as §1, with “Normalized luciferase activities are shown.” left out

[3] = system: INS-1 insulinoma cells; assay: Gene profiling and Q-PCR of cAMP inducible genes in INS-1 cells; type: cell-based, rat; details: INS-1 cells exposed to FSK
Protocol: as §1
Gene profiling experiments were performed on total RNA from INS-1 cells using an Affymetrix Rat Gene Array as previously described (Zhang et al., 2005).
mRNA levels were quantified by Q-PCR analysis as previously described (Dentin, 2007). Oligonucleotides were designed to target rat gene sequences.

[4] = system: HIF1α; assay: Immunoblot of HIF1α in primary hepatocytes; type: cell-based; details: cultured primary hepatocytes
[5] = system: HIF; assay: HRE-luc reporter in primary hepatocytes; type: cell-based; details: cultured primary hepatocytes
From the text: Plasmids expressing cDNAs for HA-HIF-1α […]/P564A (18955) were purchased from Addgene. HRE-LUC reporter construct was generously provided by Randall Johnson (UCSD).

[6] = cited from earlier work
[7] = mildly hyperglycaemic patients with Type 2 diabetes on metformin; cited from earlier work
[8] = target: human GLP-1 receptor (Homo sapiens, UniProt P43220); details: greater affinity than native GLP-1; cited from earlier work
[9] = system: INS-1 cells; assay: Cell size determination in INS-1 cells; type: cell-based, rat; details: co-incubation with FSK
Protocol: For cell size measurements, INS-1 cells were plated on 6 cm dishes, treated as indicated, trypsinized and resuspended in PBS. Cell diameter was measured using a particle size counter.

[10] = system: mTORC1; assay: Immunoblot of phospho-S6 in INS-1 cells; type: cell-based, rat; details: co-incubation of mTOR inhibitor with FSK
Protocol: as §2
as §1, with “After 24 hours, cells were exposed to rapamycin overnight where indicated. After forskolin treatment, cells were harvested for Renilla/firefly luciferase activity. Normalized luciferase activities are shown.” left out

[11] = prolonged exposure, particularly under high glucose (20 mM)
[12] = plus protein synthesis inhibitor

Chain of human GLP-1 receptor (P43220 24-463): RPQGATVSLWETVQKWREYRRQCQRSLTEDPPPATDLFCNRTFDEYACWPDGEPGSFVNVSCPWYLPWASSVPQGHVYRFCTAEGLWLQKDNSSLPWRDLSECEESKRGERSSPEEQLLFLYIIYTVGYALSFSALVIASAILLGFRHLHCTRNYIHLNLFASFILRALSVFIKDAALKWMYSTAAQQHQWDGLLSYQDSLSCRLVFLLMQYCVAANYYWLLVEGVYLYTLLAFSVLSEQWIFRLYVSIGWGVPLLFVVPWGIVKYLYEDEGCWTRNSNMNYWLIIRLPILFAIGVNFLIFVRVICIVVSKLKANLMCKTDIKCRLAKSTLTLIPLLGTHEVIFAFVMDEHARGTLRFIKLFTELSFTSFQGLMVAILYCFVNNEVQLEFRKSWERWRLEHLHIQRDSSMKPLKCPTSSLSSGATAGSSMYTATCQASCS

In the case of O=S(=O)(NCCNC/C=C/c1ccc(Br)cc1)c1cccc2cnccc12 [H89], the “induction of the HRE-luc reporter by FSK” value ([1]; co-incubation with inhibitor) is reported as “blocked” and the “induction of the HRE-luc reporter by IBMX” value ([1]; co-incubation with inhibitor) is reported as “blocked”.
For Exendin-4: GLP-1 agonist, the HRE-luc reporter activity [1, 11] was “increased” and the HIF1α protein accumulation [2, 11] was “increased”.
With C[C@@H]1C[C@@H]([C@H](O)CC2CC(=O)NC(=O)C2)C(=O)[C@@H](C)C1 [cycloheximide] the “expression of CREB target genes” value [3, 12] was “enhanced” and the “expression of late phase genes like HMOX1 by FSK” value [3, 12] was “reduced”.
For COC(=O)CNC(=O)C(=O)OC [DMOG, Dimethyloxalyl Glycine], the HIF1α accumulation [4] was “triggered”, the HRE-luc reporter activation [5] was “triggered” and the HIF1α protein levels ([2]; agent alone) was “increased”.
In the case of Albiglutide, the half-life ([6]; after administration) is given as “four to seven”.
For Lixisenatide, the glycaemic control [7] is given as “significantly improve”, the “affinity for the human GLP-1 receptor compared with native GLP-1” value [8] is given as “approximately 4 fold” and the half-life ([6]; in vivo) is given as 2.5 to 4 h.
With CC(C)Cn1c(=O)n(C)c(=O)c2[nH]cnc21 [IBMX] the HRE-luc reporter activity ([1]; time not stated) was “increased”.
In the case of C=C[C@@]1(C)CC(=O)[C@]2(O)[C@@]3(C)[C@@H](O)CCC(C)(C)[C@@H]3[C@H](O)[C@H](OC(C)=O)[C@@]2(C)O1 [FSK, Forskolin], the HIF1α accumulation [4] is reported as “no effect” and the HRE-luc reporter activation [5] is reported as “no effect”.
With CO[C@H]1C[C@@H]2CC[C@@H](C)[C@@](O)(O2)C(=O)C(=O)N2CCCC[C@H]2C(=O)O[C@H]([C@H](C)C[C@@H]2CC[C@@H](O)[C@H](OC)C2)CC(=O)[C@H](C)/C=C(\C)[C@@H](O)[C@@H](OC)C(=O)[C@H](C)C[C@H](C)/C=C/C=C/C=C/1C [rapamycin] the “induction of CREB target genes such as NR4A2” value ([3]; plus rapamycin) was “no effect”.
With CC(C)n1nc(-c2cc3cc(O)ccc3[nH]2)c2c(N)ncnc21 [PP242] the “effects of FSK on cell size” value [9] was “blocked”, the “effects of FSK on S6 phosphorylation” value [10] was “blocked” and the “effects of FSK on HIF1α induction” value ([2]; co-incubation of mTOR inhibitor with FSK) was “blocked”.
